Source: patent US8273378B2, “Dialysis solutions containing pyrophosphates” (Baxter International, Inc., priority 2007, dated 2012)
Like-named read-outs stand apart in the source and are kept apart here.

Conditions: for change in the pH of the solutions: after sterilization and after storage for a week at 40° C.; for loss of pyrophosphate during sterilization / stability of pyrophosphate on storage: all buffers; for loss of pyrophosphate during sterilization: pH 6 and lower; for stability of pyrophosphate on storage: 1 week at 40° C.; for Recoveries: unsterilized
Procedure: Introduction: This study was designed to evaluate the stability of pyrophosphate salts with different buffers over a pH range from 4 to 10 during steam sterilization and after storage at 40° C. Two pyrophosphate salts and four buffers were obtained for the study. TRIS was added to all solutions as a pH stabilizer. Two of the solutions were also prepared without TRIS for comparison. The pH of the solutions was adjusted from pH 4-10 with 1N HCl or 1N NaOH. The solutions were sterilized at 121° C. for 40 minutes. Pyrophosphate concentration was determined before and after sterilization and after storage. The pH was also determined after sterilization and after storage.
The salts tested were: • 1. Disodium Pyrophosphate (Na2H2P2O7) • 2. Tetrapotassium Pyrophosphate (K4P2O7)
The study was performed using the sodium and potassium salts of pyrophosphate with the buffers shown below. Solutions were not prepared with bicarbonate below pH 7 because bicarbonate will decompose at a lower pH. • 1. Sodium Lactate • 2. Sodium Bicarbonate • 3. Sodium Citrate • 4. Sodium Pyruvate
The concentrations of the solution components are shown below in Table 2.

Compound | change in the pH of the solutions | loss of pyrophosphate during sterilization | change in pH after sterilization (all solutions) | stability during sterilization (pH 9) | pH change after storage (storage for 1 week) | stability of pyrophosphate on storage (pH 7-10) | stability of pyrophosphate on storage (pH 7-10, except lactate without TRIS at pH 7) | pH change after storage (storage for up to two months at 40° C., all solutions) | Recoveries (all buffers at pH 6 and higher) | Recoveries (buffers other than citrate, pH 4 and 5) | stability during sterilization (with bicarbonate at pH 9-10)
O=P([O-])([O-])OP(=O)([O-])[O-].[K+].[K+].[K+].[K+] [Tetrapotassium Pyrophosphate] | no change in the pH | substantial loss of pyrophosphate | no change in pH | most stable | less than 0.1 pH unit | – | – | – | – | – | –
O=P([O-])([O-])OP(=O)(O)O.[Na+].[Na+] [Disodium Pyrophosphate] | no change in the pH | substantial loss of pyrophosphate | no change in pH | – | – | remained unchanged | stable | less than 0.1 pH unit | ≥ 95% | 90-102% | most stable
